Measured values taken from EP0212822A1, “A composition containing a plant growth regulator and an alkanol and a method of using the same” (ICI AMERICAS INC., priority 1985, dated 1987).
Entries after “also recorded” stand apart in the source; their conditions may differ.

What was measured:
[1] = tested on: Liquidambar styraciflua (Sweetgum); assay: Trunk injection of PGR in ethanol or methanol, ratings; type: in vivo
Description: The examples which follow exemplify the improvements obtained by this invention. However, these examples are not intended to limit the scope of the invention. In Examples 1-41, the subject trees were injected at a distance approximately one foot from the soil line by drilling 7/32 inch diameter holes to a 2 inch depth at a 30-45° angle tangential to the trunk with a pressure injector (150 psi) purchased from the Asplundh Tree Expert Co., Company No. 346-3502. The results are expressed in terms of Retardation and Uniformity Ratings. The Retardation rating scale is as follows: • 0 = no retardataion • 1 = 1-20% retardation • 2 = 21-40% retardation • 3 = 41-60% retardation • 4 = 61-80% retardation • 5 = 81-100% retardation
The Uniformity Rating is a measure of the consistency of response to the treatment between different branches of the tree. The Uniformity scale employed is as follows: • 0 = no effect from PGR • 1 = poor • 2 = fair • 3 = acceptable • 4 = very good • 5 = excellent
20 grams of PGR were dissolved in 1 liter of solvent at room temperature and stirred until the solution was clear, approximately 20 minutes. The solution was injected into the trunk of Liquidambar styraciflua (Sweetgum).

Vicia faba (Broadbean) = assay: Stem injection with hypodermic syringe, growth as % of control; type: in vivo; conditions: 0.1 ml injected, averaged over four replications
Description: 10 grams of PGR were dissolved in 1 liter of solvent at room temperature and stirred until the solution was clean, approximately 20 minutes. 0.1 ml of the solution was injected, […] above the soil level, in Vicia faba (Broadbean) with a hypodermic syringe.

[2] = Adsorption of tracer dyes to sawdust; type: physicochemical, Birch and Ash
Description: 0.1 g of methylene blue and 0.1 g of acid fuschin were each dissolved in 1 liter of methanol (Me), […] methanol/water (Me/Wa) and water (Wa). 2 g (fresh weight) of sawdust taken from the active conductive tissues of Birch and Ash were combined with 20 ml of solution. The dye solutions were shaken overnight. The supernatant was decanted and the quantity of dye remaining in solution estimated by spectroscopy.

[3] = week 2, 20 grams of PGR in 1 liter Ethanol
[4] = week 2, 20 grams of PGR in 1 liter Methanol
[5] = week 6, 20 grams of PGR in 1 liter Ethanol
[6] = week 6, 20 grams of PGR in 1 liter Methanol
[7] = 14 days, 10 grams of PGR in 1 liter Ethanol
[8] = 14 days, 10 grams of PGR in 1 liter Methanol
[9] = 21 days, 10 grams of PGR in 1 liter Ethanol
[10] = 21 days, 10 grams of PGR in 1 liter Methanol

Row | Structure (SMILES) | Retardation/ Uniformity Ratings at Indicated Week After Treatment [1, 3] | Retardation/ Uniformity Ratings at Indicated Week After Treatment [1, 4] | Retardation/ Uniformity Ratings at Indicated Week After Treatment [1, 5] | Retardation/ Uniformity Ratings at Indicated Week After Treatment [1, 6] | Growth (% Control) At Indicated Days After Treatment (Vicia faba (Broadbean); [7]) | Growth (% Control) At Indicated Days After Treatment (Vicia faba (Broadbean); [8]) | Growth (% Control) At Indicated Days After Treatment (Vicia faba (Broadbean); [9]) | Growth (% Control) At Indicated Days After Treatment (Vicia faba (Broadbean); [10]) | binding of dye to wood ([2]; either solvent (water and methanol)) | binding of dye to wood ([2]; methanol as solvent) | binding of dye to wood ([2]; methanol as solvent, listed as Methylene blue) | binding of dye to wood ([2]; water as solvent) | binding of dye to wood ([2]; water as solvent, listed as Methylene blue)
1 | CC(C)C(O)(c1ccc(OC(F)(F)F)cc1)c1cncnc1 (stereo not drawn) [PGR-2] | 1 (1 = 1-20% retardation) | 1 (1 = 1-20% retardation) | 3 (3 = 41-60% retardation) | 3 (3 = 41-60% retardation) | 6 % Control | 10 % Control | 7 % Control | 10 % Control | – | – | – | – | –
2 | CC1=CC(=C(c2ccc(N)c(S(=O)(=O)O)c2)c2ccc(N)c(S(=O)(=O)O)c2)C=C(S(=O)(=O)O)C1=N [acid fuschin] | – | – | – | – | – | – | – | – | binds only partially; also recorded: binds weakly | – | – | – | –
3 | CC(C)(C)C(O)C(Cc1ccc(Cl)cc1)n1cncn1 (stereo not drawn) [PGR-1] | 1 (1 = 1-20% retardation) | 1 (1 = 1-20% retardation) | 3 (3 = 41-60% retardation) | 4 (4 = 61-80% retardation) | 13 % Control | 12 % Control | 18 % Control | 17 % Control | – | – | – | – | –
4 | CN(C)c1ccc2nc3ccc(=[N+](C)C)cc-3sc2c1 [methylene blue] | – | – | – | – | – | – | – | – | – | binds weakly | weakly | binding almost completely | binds strongly
